Results as given in US20240090503A1, “FUNGICIDAL OXADIAZOLES AND THEIR MIXTURES” (FMC CORPORATION, priority 2020, published 2024).
Marks after values point to notes of the source that are not given here.

Legend:
Format in all cases: in vivo
[1] = system: Puccinia recondita f. sp. tritici (the causal agent of wheat leaf rust); experiment: Test C: preventive spray on wheat seedlings, wheat leaf rust, visual disease rating; settings: wheat seedlings
How it was run: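 Wheat seedlings sprayed to run-off with compound in acetone/water (50/50) with 250 ppm PEG400, then inoculated with spores the following day. After 24 h saturated humidity at 20° C. and 6 days in growth chamber at 20° C., disease rated visually as % control relative to untreated controls.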

[2] = system: Phakopsora pachyrhizi (the causal agent of Asian soybean rust); experiment: Test A: preventive spray on soybean seedlings, Asian soybean rust, visual disease rating; settings: soybean seedlings
How it was run: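 Preventive test: soybean seedlings received a run-off spray of compound suspended at the set ppm in 50/50 acetone/water plus 250 ppm PEG400, and one day later a P. pachyrhizi spore inoculum. Visual scoring (0 none to 100 full disease control) followed 24 h saturated incubation and 8 days' growth chamber, both at 22° C.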

[3] = system: Zymoseptoria tritici (the causal agent of wheat leaf blotch); experiment: Test B: preventive spray on wheat seedlings, wheat leaf blotch, visual disease rating; settings: test suspension 250 ppm, wheat seedlings; for pest or weed control at 250 µg/mL: Zymoseptoria tritici, 456 h
How it was run: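 This is a preventive test: spray application preceded Zymoseptoria tritici spore inoculation by one day. Test suspensions were in acetone/water with 250 ppm PEG400 surfactant, at the listed ppm rate. After 48 h saturated humidity at 24° C and 17 days at 20° C, visual ratings scored control from 0 to 100%.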

[4] = test suspension 10 ppm, 100 = 100% disease control, 0 = no control
[5] = Puccinia recondita, 168 h, test suspension 50 ppm
[6] = Phakopsora pachyrhizi, 216 h, test suspension 50 ppm

## O=C(c1coc(Cc2ccc(-c3noc(C(F)(F)F)n3)cc2)n1)N1CCCC1 [compound 227]
[1]; test suspension 10 ppm
  Test C disease control rating: 97%
[2]; [4]
  Test A disease control rating: 100%
[3]
  Test B disease control rating: 99* %

## O=C(c1coc(Cc2ccc(-c3noc(C(F)(F)F)n3)cc2)n1)N1CCC(F)(F)CC1 [compound 228]
[1]; test suspension 10 ppm
  Test C disease control rating: 79%
[2]; [4]
  Test A disease control rating: 100%
[3]
  Test B disease control rating: 99* %

## CC(C)(C#N)NC(=O)c1coc(Cc2ccc(-c3noc(C(F)(F)F)n3)cc2)n1 [compound 230]
[1]; test suspension 10 ppm
  Test C disease control rating: 99%
[2]; [4]
  Test A disease control rating: 100%
[3]
  Test B disease control rating: 99* %

## N#CC1(NC(=O)c2coc(Cc3ccc(-c4noc(C(F)(F)F)n4)cc3)n2)CC1 [compound 231]
[1]; test suspension 10 ppm
  Test C disease control rating: 97%
[2]; [4]
  Test A disease control rating: 100%
[3]
  Test B disease control rating: 95* %

## O=c1cc(-c2noc(C(F)(F)F)n2)ccn1Cc1ccccc1F [compound 232]
[1]; Puccinia recondita, 168 h, test suspension 250 ppm
  pest or weed control at 250 µg/mL: 100%
[2]; Phakopsora pachyrhizi, 216 h, test suspension 250 ppm
  pest or weed control at 250 µg/mL: 100%
[3]
  pest or weed control at 250 µg/mL: 68%

## COc1cccc(Cn2ccc(-c3noc(C(F)(F)F)n3)cc2=O)c1 [compound 233]
[1]; [5]
  pest or weed control at 50 µg/mL: 100%
[2]; [6]
  pest or weed control at 50 µg/mL: 97%
[3]
  pest or weed control at 250 µg/mL: 90%

## CCOC(=O)c1cnn(Cn2ccc(-c3noc(C(F)(F)F)n3)cc2=O)c1 [compound 234]
[1]; test suspension 10 ppm
  Test C disease control rating: 88%
[2]; [4]
  Test A disease control rating: 100%
[3]
  Test B disease control rating: 87* %

## CCc1nn(Cc2ccc(-c3noc(C(F)(F)F)n3)cc2)c(=O)n1C [compound 235]
[1]; test suspension 250 ppm
  Test C disease control rating: 100%
[2]; test suspension 250 ppm
  Test A disease control rating: 100%
[3]
  Test B disease control rating: 87%

## Cn1c(C2CC2)nn(Cc2ccc(-c3noc(C(F)(F)F)n3)cc2)c1=O [compound 236]
[1]; test suspension 250 ppm
  Test C disease control rating: 100%
[2]; test suspension 250 ppm
  Test A disease control rating: 100%
[3]
  Test B disease control rating: 83%

## CC(C)c1nn(Cc2ccc(-c3noc(C(F)(F)F)n3)cc2)c(=O)n1C [compound 237]
[1]; test suspension 250 ppm
  Test C disease control rating: 100%
[2]; test suspension 250 ppm
  Test A disease control rating: 100%
[3]
  Test B disease control rating: 94%

## CCCc1nn(Cc2ccc(-c3noc(C(F)(F)F)n3)cc2)c(=O)n1C [compound 238]
[1]; test suspension 250 ppm
  Test C disease control rating: 100%
[2]; test suspension 250 ppm
  Test A disease control rating: 100%
[3]
  Test B disease control rating: 87%

## Cn1c(C(F)(F)F)nn(CCc2ccc(-c3noc(C(F)(F)F)n3)cc2)c1=O [compound 239]
[1]; test suspension 250 ppm
  Test C disease control rating: 100%
[2]; test suspension 250 ppm
  Test A disease control rating: 100%
[3]
  Test B disease control rating: 0%

## Cn1c(C(F)(F)F)nn(CCCc2ccc(-c3noc(C(F)(F)F)n3)cc2)c1=O [compound 240]
[1]; test suspension 250 ppm
  Test C disease control rating: 100%
[2]; test suspension 250 ppm
  Test A disease control rating: 100%
[3]
  Test B disease control rating: 4%

## CCOC(=O)c1coc(Cc2ccc(-c3noc(C(F)(F)F)n3)cc2)n1 [compound 252]
[1]; test suspension 10 ppm
  Test C disease control rating: 84%
[2]; [4]
  Test A disease control rating: 100%
[3]
  Test B disease control rating: 92* %

## O=C(O)c1coc(Cc2ccc(-c3noc(C(F)(F)F)n3)cc2)n1 [compound 253]
[1]; test suspension 10 ppm
  Test C disease control rating: 74%
[2]; [4]
  Test A disease control rating: 98%
[3]
  Test B disease control rating: 46* %

## NC(=O)c1coc(Cc2ccc(-c3noc(C(F)(F)F)n3)cc2)n1 [compound 254]
[1]; test suspension 10 ppm
  Test C disease control rating: 100%
[2]; [4]
  Test A disease control rating: 100%
[3]
  Test B disease control rating: 70* %

## N#Cc1coc(Cc2ccc(-c3noc(C(F)(F)F)n3)cc2)n1 [compound 256]
[1]; test suspension 10 ppm
  Test C disease control rating: 99%
[2]; [4]
  Test A disease control rating: 100%
[3]
  Test B disease control rating: 98* %

## N#CCNC(=O)c1coc(Cc2ccc(-c3noc(C(F)(F)F)n3)cc2)n1 [compound 258]
[1]; test suspension 10 ppm
  Test C disease control rating: 99%
[2]; [4]
  Test A disease control rating: 100%
[3]
  Test B disease control rating: 99* %

## CC(C)NC(=O)c1coc(Cc2ccc(-c3noc(C(F)(F)F)n3)cc2)n1 [compound 259]
[1]; test suspension 10 ppm
  Test C disease control rating: 99%
[2]; [4]
  Test A disease control rating: 100%
[3]
  Test B disease control rating: 99* %

## O=C(NC1CC1)c1coc(Cc2ccc(-c3noc(C(F)(F)F)n3)cc2)n1 [compound 260]
[1]; test suspension 10 ppm
  Test C disease control rating: 100%
[2]; [4]
  Test A disease control rating: 100%
[3]
  Test B disease control rating: 47* %

## O=C(c1coc(Cc2ccc(-c3noc(C(F)(F)F)n3)cc2)n1)N1CCC1 [compound 261]
[1]; test suspension 10 ppm
  Test C disease control rating: 99%
[2]; [4]
  Test A disease control rating: 100%
[3]
  Test B disease control rating: 88* %

## CCN(CC)C(=O)c1coc(Cc2ccc(-c3noc(C(F)(F)F)n3)cc2)n1 [compound 262]
[1]; test suspension 10 ppm
  Test C disease control rating: 98%
[2]; [4]
  Test A disease control rating: 100%
[3]
  Test B disease control rating: 96* %

## Cn1ccc(CNC(=O)c2coc(Cc3ccc(-c4noc(C(F)(F)F)n4)cc3)n2)n1 [compound 265]
[1]; test suspension 10 ppm
  Test C disease control rating: 100%
[2]; [4]
  Test A disease control rating: 100%
[3]
  Test B disease control rating: 93* %

## CCOC(=O)c1cnn(Cc2cccc(-c3noc(C(F)(F)F)n3)c2)c1 [compound 276]
[1]; [5]
  pest or weed control at 50 µg/mL: 80%
[2]; [6]
  pest or weed control at 50 µg/mL: 100%
[3]
  pest or weed control at 250 µg/mL: 35%

## O=C(NCc1nccs1)c1coc(Cc2ccc(-c3noc(C(F)(F)F)n3)cc2)n1 [compound 277]
[1]; test suspension 10 ppm
  Test C disease control rating: 100%
[2]; [4]
  Test A disease control rating: 100%
[3]
  Test B disease control rating: 99* %

## COC(CNC(=O)c1coc(Cc2ccc(-c3noc(C(F)(F)F)n3)cc2)n1)OC [compound 278]
[1]; test suspension 10 ppm
  Test C disease control rating: 100%
[2]; [4]
  Test A disease control rating: 100%
[3]
  Test B disease control rating: 98* %

## COCC(COC)NC(=O)c1coc(Cc2ccc(-c3noc(C(F)(F)F)n3)cc2)n1 [compound 279]
[1]; test suspension 10 ppm
  Test C disease control rating: 100%
[2]; [4]
  Test A disease control rating: 100%
[3]
  Test B disease control rating: 94* %

## CCNC(=O)c1coc(Cc2ccc(-c3noc(C(F)(F)F)n3)cc2)n1 [compound 280]
[1]; test suspension 10 ppm
  Test C disease control rating: 99%
[2]; [4]
  Test A disease control rating: 100%
[3]
  Test B disease control rating: 99* %

## O=C(NCC(F)(F)F)c1ccc(Cc2ccc(-c3noc(C(F)(F)F)n3)cc2)cc1 [compound 281]
[1]; test suspension 10 ppm
  Test C disease control rating: 95%
[2]; [4]
  Test A disease control rating: 100%
[3]
  Test B disease control rating: 34* %

## N#CCNC(=O)c1ccc(Cc2ccc(-c3noc(C(F)(F)F)n3)cc2)cc1 [compound 283]
[1]; test suspension 10 ppm
  Test C disease control rating: 98%
[2]; [4]
  Test A disease control rating: 100%
[3]
  Test B disease control rating: 0* %

## COCCNC(=O)c1cccc(Cc2ccc(-c3noc(C(F)(F)F)n3)cc2)c1 [compound 284]
[1]; test suspension 10 ppm
  Test C disease control rating: 100%
[2]; [4]
  Test A disease control rating: 100%
[3]
  Test B disease control rating: 91* %

## N#CCNC(=O)c1cccc(Cc2ccc(-c3noc(C(F)(F)F)n3)cc2)c1 [compound 285]
[1]; test suspension 10 ppm
  Test C disease control rating: 97%
[2]; [4]
  Test A disease control rating: 100%
[3]
  Test B disease control rating: 94* %

## O=C(NCC(F)(F)F)c1csc(Cc2ccc(-c3noc(C(F)(F)F)n3)cc2)c1 [compound 286]
[1]; test suspension 10 ppm
  Test C disease control rating: 100%
[2]; [4]
  Test A disease control rating: 100%
[3]
  Test B disease control rating: 3* %

## COCCNC(=O)c1csc(Cc2ccc(-c3noc(C(F)(F)F)n3)cc2)c1 [compound 287]
[1]; test suspension 10 ppm
  Test C disease control rating: 100%
[2]; [4]
  Test A disease control rating: 100%
[3]
  Test B disease control rating: 98* %

## N#CCNC(=O)c1csc(Cc2ccc(-c3noc(C(F)(F)F)n3)cc2)c1 [compound 288]
[1]; test suspension 10 ppm
  Test C disease control rating: 100%
[2]; [4]
  Test A disease control rating: 100%
[3]
  Test B disease control rating: 91* %

## O=C(NCCn1cccn1)c1csc(Cc2ccc(-c3noc(C(F)(F)F)n3)cc2)c1 [compound 289]
[1]; test suspension 10 ppm
  Test C disease control rating: 100%
[2]; [4]
  Test A disease control rating: 100%
[3]
  Test B disease control rating: 80* %

## O=C(NCC1CC1)c1csc(Cc2ccc(-c3noc(C(F)(F)F)n3)cc2)c1 [compound 290]
[1]; test suspension 10 ppm
  Test C disease control rating: 100%
[2]; [4]
  Test A disease control rating: 100%
[3]
  Test B disease control rating: 53* %

## O=C(NCC(F)(F)F)c1coc(Cc2ccc(-c3noc(C(F)(F)F)n3)cc2)c1 [compound 291]
[1]; test suspension 10 ppm
  Test C disease control rating: 97%
[2]; [4]
  Test A disease control rating: 100%
[3]
  Test B disease control rating: 13* %

## COCCNC(=O)c1coc(Cc2ccc(-c3noc(C(F)(F)F)n3)cc2)c1 [compound 292]
[1]; test suspension 10 ppm
  Test C disease control rating: 85%
[2]; [4]
  Test A disease control rating: 100%
[3]
  Test B disease control rating: 96* %

## O=C(NCCn1cccn1)c1coc(Cc2ccc(-c3noc(C(F)(F)F)n3)cc2)c1 [compound 293]
[1]; test suspension 10 ppm
  Test C disease control rating: 79%
[2]; [4]
  Test A disease control rating: 100%
[3]
  Test B disease control rating: 91* %

## N#CCNC(=O)c1coc(Cc2ccc(-c3noc(C(F)(F)F)n3)cc2)c1 [compound 294]
[1]; test suspension 10 ppm
  Test C disease control rating: 79%
[2]; [4]
  Test A disease control rating: 100%
[3]
  Test B disease control rating: 50* %

## Cc1nc(COc2ccc(-c3noc(C(F)(F)F)n3)cc2)cs1 [compound 298]
[1]; test suspension 10 ppm
  Test C disease control rating: 0%
[2]; [4]
  Test A disease control rating: 50%
[3]
  Test B disease control rating: 73* %

## CCOC(=O)c1cnn(Cn2cc(-c3noc(C(F)(F)F)n3)cn2)c1 [compound 305]
[1]; test suspension 50 ppm
  Test C disease control rating: 0%
[2]; test suspension 50 ppm
  Test A disease control rating: 44%
[3]
  Test B disease control rating: 0* %
